Test results: ChEMBL document CHEMBL1136336, “Aryl[a]pyrrolo[3,4-c]carbazoles as selective cyclin D1-CDK4 inhibitors” (Bioorg Med Chem Lett, 2003)

Key:
[1] = target: Cyclin-dependent kinase 4/cyclin D1 (Homo sapiens, UniProt P11802); assay: Inhibitory activity against Cyclin D1-cyclin-dependent kinase 4 by measuring the phosphorylation of RbING; assay type: protein-complex assay
NCI-H460 = assay: Inhibition of human NCI-H460 (lung) carcinoma cell proliferation; assay type: functional, cell-based
HCT-116 = assay: Inhibition of human HCT(colon) carcinoma cell proliferation; assay type: functional, cell-based
[2] = target: cAMP-dependent protein kinase (PKA) (Homo sapiens, UniProt P22694+P17612+P22612); assay: Inhibition of Protein kinase A; assay type: protein assay
[3] = target: Protein kinase C alpha type (Homo sapiens, UniProt P17252); assay: Inhibition of Protein kinase C alpha
[4] = target: Glycogen synthase kinase-3 beta (Homo sapiens, UniProt P49841); assay: Inhibition of Glycogen synthase kinase-3 beta
Glycogen synthase kinase-3 beta, sequence (P49841 whole entry): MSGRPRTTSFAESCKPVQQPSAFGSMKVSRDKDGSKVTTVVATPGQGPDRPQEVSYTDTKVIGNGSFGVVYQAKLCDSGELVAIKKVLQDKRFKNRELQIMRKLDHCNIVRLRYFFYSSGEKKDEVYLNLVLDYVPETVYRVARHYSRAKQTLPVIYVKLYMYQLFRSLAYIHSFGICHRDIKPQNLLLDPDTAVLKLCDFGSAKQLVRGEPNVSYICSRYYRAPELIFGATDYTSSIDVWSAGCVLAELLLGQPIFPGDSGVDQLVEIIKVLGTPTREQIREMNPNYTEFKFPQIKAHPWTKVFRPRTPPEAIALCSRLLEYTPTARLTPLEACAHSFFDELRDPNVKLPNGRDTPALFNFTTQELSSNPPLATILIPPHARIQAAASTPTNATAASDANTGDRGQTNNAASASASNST

[5] = target: Cyclin-dependent kinase 1/cyclin B (Homo sapiens, UniProt P06493); assay: Inhibition of Cyclin B-cyclin-dependent kinase 1; assay type: protein-complex assay
[6] = target: Protein kinase C beta type (Homo sapiens, UniProt P05771); assay: Inhibition of Protein kinase C beta 2
Protein kinase C beta type, sequence (P05771 whole entry): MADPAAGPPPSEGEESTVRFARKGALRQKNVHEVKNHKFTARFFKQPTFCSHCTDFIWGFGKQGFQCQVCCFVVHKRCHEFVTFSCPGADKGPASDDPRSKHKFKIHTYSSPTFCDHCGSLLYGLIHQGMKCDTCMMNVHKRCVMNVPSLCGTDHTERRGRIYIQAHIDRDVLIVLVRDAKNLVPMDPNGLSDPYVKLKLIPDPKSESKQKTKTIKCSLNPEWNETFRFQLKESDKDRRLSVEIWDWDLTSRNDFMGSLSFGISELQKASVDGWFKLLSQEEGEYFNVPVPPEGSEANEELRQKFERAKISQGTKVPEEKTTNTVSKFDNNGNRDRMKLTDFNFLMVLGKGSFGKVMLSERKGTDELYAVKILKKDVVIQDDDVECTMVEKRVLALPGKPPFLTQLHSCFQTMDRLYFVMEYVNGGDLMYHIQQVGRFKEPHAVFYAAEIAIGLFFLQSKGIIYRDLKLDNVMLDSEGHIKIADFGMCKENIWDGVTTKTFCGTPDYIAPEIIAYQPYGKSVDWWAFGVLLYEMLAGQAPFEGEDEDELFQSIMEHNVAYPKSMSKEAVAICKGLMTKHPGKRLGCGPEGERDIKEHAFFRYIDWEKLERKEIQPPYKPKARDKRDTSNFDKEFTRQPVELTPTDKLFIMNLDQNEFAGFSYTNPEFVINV

[7] = target: Protein kinase C gamma type (Homo sapiens, UniProt P05129); assay: Inhibition of Protein kinase C gamma
[8] = target: Cyclin-dependent kinase 2/cyclin E (Homo sapiens, UniProt P24941); assay: Inhibition of Cyclin E-cyclin-dependent kinase 2; assay type: protein-complex assay

Cyclin-dependent kinase 4/cyclin D1, sequence (P11802 whole entry): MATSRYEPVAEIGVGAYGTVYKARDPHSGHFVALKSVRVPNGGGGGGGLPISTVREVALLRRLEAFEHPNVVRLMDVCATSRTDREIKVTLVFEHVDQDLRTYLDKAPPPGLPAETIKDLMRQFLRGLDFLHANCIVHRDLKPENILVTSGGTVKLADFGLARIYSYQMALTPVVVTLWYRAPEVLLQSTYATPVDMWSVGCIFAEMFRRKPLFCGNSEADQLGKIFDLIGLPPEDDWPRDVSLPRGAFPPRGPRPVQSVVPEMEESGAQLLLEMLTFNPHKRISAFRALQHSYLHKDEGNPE
Cyclin-dependent kinase 4/cyclin D1, sequence (P24385 whole entry, further chain): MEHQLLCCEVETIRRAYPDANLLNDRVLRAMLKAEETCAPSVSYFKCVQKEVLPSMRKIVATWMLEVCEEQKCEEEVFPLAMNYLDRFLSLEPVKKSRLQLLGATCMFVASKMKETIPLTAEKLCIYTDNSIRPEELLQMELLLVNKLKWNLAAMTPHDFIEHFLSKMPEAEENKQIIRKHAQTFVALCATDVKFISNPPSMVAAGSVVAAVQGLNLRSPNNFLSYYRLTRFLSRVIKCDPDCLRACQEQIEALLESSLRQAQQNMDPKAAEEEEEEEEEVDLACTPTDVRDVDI

SMILES	IC50 [1] [nM]	IC50 (NCI-H460) [µM]	IC50 (HCT-116) [µM]	further results
O=C1NC(=O)c2c1c1c3c(ccc1c1[nH]c4ccccc4c21)CCCC3	410	–	–	–
O=C1NC(=O)c2c1c1ccncc1c1[nH]c3ccccc3c21	1810	–	–	–
O=C1NC(=O)c2c1c1c3ccccc3[nH]c1c1sc3ccccc3c21	220	2.84	3.02	–
O=C1NC(O)c2c1c1c3ccccc3[nH]c1c1[nH]c3ccccc3c21 (centres undefined)	3830	–	–	–
O=C1NC(=O)c2c1c1sccc1c1[nH]c3ccccc3c21	150	> 10	> 10	–
O=C1NC(=O)c2c1c1c3ccccc3ccc1c1[nH]c3ccccc3c21	45	2.11	5.05	IC50 [2]: > 20 µM; IC50 [3]: 52.8 µM; IC50 [4]: 4.38 µM; IC50 [5]: 590 nM; IC50 [6]: 9 µM; IC50 [7]: 56.5 µM; IC50 [8]: 275 nM
O=C1NC(=O)c2c1c1c3ccc[nH]c-3nc1c1[nH]c3ccccc3c21	250	1.16	1.05	–
O=C1NC(=O)c2c1c1ccc3ccccc3c1c1[nH]c3ccccc3c21	430	> 10	> 10	–
O=C1NC(=O)c2c1c1ncccc1c1[nH]c3ccccc3c21	180	> 10	> 10	–
O=C1NC(=O)c2c1c1cc3ccccc3cc1c1[nH]c3ccccc3c21	> 10000	–	–	–
O=C1NC(=O)c2c1c1ccccc1c1[nH]c3ccccc3c21	260	3.42	5.83	–
O=C1NC(=O)c2c1c1[nH]cnc1c1[nH]c3ccccc3c21 [GRANULATIMIDE]	740	–	–	–
O=C1NC(=O)c2c1c1c3ccccc3[nH]c1c1[nH]c3ccccc3c21 [STAUROSPORINE AGLYCON]	–	–	–	IC50 [2]: > 2 µM
O=C1NCc2c1c1c3ccccc3[nH]c1c1[nH]c3ccccc3c21 [STAUROSPORINONE]	830	3.2	1.72	IC50 [2]: > 2 µM; IC50 [8]: > 1000 nM
